# Measured values as given in patent US5284847A, “Thieno pyrazine diones, their preparation and use” (Novo Nordisk A/S, priority 1991, dated 1994).
# Experiments:
# [1] = system: convulsions induced by i.c.v. infusion of NMDA; experiment: Convulsions induced by i.c.v. infusion of NMDA (Test 2), time to onset of clonic seizures; assay type: in vivo, mouse (male NMRI); conditions: i.c.v. co-infusion with NMDA, mice
# Experimental: The glycine antagonists are co-infused with NMDA and their anticonvulsive effect is measured by determining a) the TVSO value which represents the dose (μg/kg) of the glycine antagonist that has to be infused per minute in order to increase time to onset of clonic seizures by 50%, b) the ED50 value which represents the dose (μg/kg) of the glycine antagonist that has to be infused per minute in order to protect 50% of the animals against clonic seizures for 150 seconds after the start of i.c.v. infusion.
# Convulsions induced by i.c.v. infusion of NKDA (Test 2 & 3)
# 58.84 μg/ml ([…] in 2.5 μl) of NMDA (Sigma) dissolved in 0.9% NaCl is co-infused i.c.v. with a glycine antagonist at a speed of 5 μl/min. Infusion is performed through a cannula placed 1 mm posterior and 1 mm lateral to the Bregma point. The cannula is injected […] into the skull of male NMRI mice weighing 25 g (range 23-27 g). Placement and length of the cannula into the skull is fixed by a plate positioned 4.3 mm from the point of the cannula. The infusion is stopped after the appearance of clonic seizures in all extremities or 150 seconds after the start time of the infusion. At least 5 doses of each glycine antagonist are tested using 8 mice per dose.
# [2] = target: T1, glycine site of the NMDA receptor complex (Rattus norvegicus, UniProt P35439); experiment: In vitro [3H]-Glycine Binding to Rat Brain Membranes (Test 1); set-up: species or system rat (male Wistar); conditions: rat forebrain membranes, 4° C., 30 min, read-out: IC50, displacement of 50% of the specific binding of [3H]-glycine
# T1 construct: Crude synaptic (P2) membranes are prepared from rat forebrains freshly dissected from male Wistar rats; from tissue; host or cells: forebrain of male Wistar rats, crude synaptic (P2) membranes, washed with Triton X-100
# Experimental: The compounds according to the invention were tested as regards the affinity for one or more of the different types of excitatory amino acid receptors and studied in simple radioligand binding experiments. In essence, the method involves incubation of a particular selected radiolabelled ligand and the particular specific substance to be investigated with brain homogenates which contain the receptor. Measurement of receptor occupancy is made by determination of the specific radioactivity bound to the homogenate.
# The glycine site binding activity of these compounds of the present invention can be illustrated by determining their capability for displacing radioactively labelled glycine from the glycine site.
# The displacement activity of the compounds may be shown by determining the IC50 value which represents the concentration (μM) which causes a displacement of 50% of the specific binding of [^3 H)-glycine.
# In vitro [^3 H]-Glycine Binding to Rat Brain Membranes (Test 1)
# The membrane preparation and assay of specific [^3 H]-glycine binding is based upon methodology described by Haring et al. (1991) J. Neurochem. 57, 323-332 and Yoneda et al. (1991) J. Neurochem. 55, 237-244.
# All steps are performed at 4° C. Buffers are prepared fresh each week from distilled, deionized water and filtered through sterile 0.2 μm membranes to eliminate artifacts due to microbial contamination. Crude synaptic (P2) membranes are prepared from rat forebrains freshly dissected from male Wistar rats and washed 4 times with low ionic strength buffer.,On the day of the assay these preparations are additionally washed with buffer containing a low concentration (0.08% g/g) of Triton X-100, and then twice more in the absence of this detergent. The procedure is aimed at the disruption of synaptic membrane vesicles and removal of endogenous amino acids.
# Specific radioligand binding is measured by incubating membranes (400-600 μg/ml of protein) with […] [^3 H]-glycine in the presence or absence of 1mM of unlabelled glycine at 4° C. for 30 min. Free and bound ligand are separated by centrifugation. Each pellet is rinsed 2X and bound radioactivity measured by liquid scintillation counting. Test substances are substituted for unlabelled glycine in the assay.
smiles,measurement,setting,value
"Cc1csc2[nH]c(=O)c(=O)[nH]c12 [Example 2, 7-Methylthieno(2,3-b)pyrazine-2,3(1H,4H)-dione]","TV50, dose infused per minute to increase time to onset of clonic seizures by 50%",[1],0.007 mg/kg
same,IC50,[2],1000 nM
"Cc1sc2[nH]c(=O)c(=O)[nH]c2c1C#N [Example 6, 7-Cyano-6-methylthieno[2,3-b)pyrazine-2,3(1H,4H)-dione]","TV50, dose infused per minute to increase time to onset of clonic seizures by 50%",[1],0.044 mg/kg
same,IC50,[2],1270 nM
"CCCc1c(Cl)sc2[nH]c(=O)c(=O)[nH]c12 [Example 10, 6-Chloro-7-propylthieno[2,3-b)pyrazine-2,3(1H,4H)-dione]","TV50, dose infused per minute to increase time to onset of clonic seizures by 50%",[1],0.0094 mg/kg
same,IC50,[2],180 nM
"O=c1[nH]c2scc(C3CC3)c2[nH]c1=O [Example 25, 7-Cyclopropylthieno(2,3-b]pyrazine-2,3(1H,4H)-dione]","TV50, dose infused per minute to increase time to onset of clonic seizures by 50%",[1],0.076 mg/kg
same,IC50,[2],850 nM
"O=c1[nH]c2scc(Br)c2[nH]c1=O [Example 38, 7-Bromothieno(2,3-b)pyrazine-2,3(1H,4H)-dione]","TV50, dose infused per minute to increase time to onset of clonic seizures by 50%",[1],0.0348 mg/kg
same,IC50,[2],180 nM
